One series deals with T1, human PTP-1B (Homo sapiens, UniProt P18031).
T1 construct: recombinant human PTP-1B[1-298] or PTP-1B[1-322]
T1 sequence (P18031 1-298 limits assumed): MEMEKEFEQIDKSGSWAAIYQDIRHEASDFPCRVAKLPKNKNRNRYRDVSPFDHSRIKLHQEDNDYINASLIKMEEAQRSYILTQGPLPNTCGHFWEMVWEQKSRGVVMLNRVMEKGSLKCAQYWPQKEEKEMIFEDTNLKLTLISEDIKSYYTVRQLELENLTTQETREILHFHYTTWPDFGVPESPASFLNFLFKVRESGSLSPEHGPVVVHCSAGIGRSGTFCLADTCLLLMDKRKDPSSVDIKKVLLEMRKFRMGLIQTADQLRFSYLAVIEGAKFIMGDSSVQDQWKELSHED
The experiment in a line: PTP-1B inhibitory activity in vitro (IC50). The class given is biochemical. The protocol: Assessment of human PTP-1B (hPTP-1B) activity in the presence of various agents is determined by measuring the amount of inorganic phosphate released from a phosphopeptide substrate using a 96-well microtiter plate format. The assay (100 μL) is performed in an assay buffer comprised of 50 mM TRIS (pH 7.5), 50 mM NaCl, 3 mM DTT at ambient temperature. The assay is typically performed in the presence of 0.4% dimethyl sulfoxide (DMSO). However, concentrations as high as 10% are used with certain poorly soluble compounds. […] Inorganic phosphate, a product of the enzyme reaction, is quantitiated after 15 min as the green color resulting from complexing with the Malichite reagent and is determined as an A620 using a Molecular Devices (Sunnyvale, Calif.) SpectraMAX Plus spectrophotometer. […] Activity is defined as the net change in absorbance resulting from the activity of the uninhibited hPTP-1B[1-411] minus that of a tube with acid-inactivated hPTP-1B[1-411]. […]
Alternatively, the assessment of human PTP-1B activity in the presence of various agents may be determined by measuring the hydrolysis products of known competing substrates. For example, cleavage of substrate para-nitrophenylphosphate (pNPP) results in the release of the yellow-colored para-nitrophenol (pNP) which can be monitored in real time using a spectrophotometer. […]

For `O=C1CN(c2cc3cc(C4CCCCC4)ccc3cc2O)S(=O)(=O)N1` [Example No. 23, 5-(7-Cyclohexyl-3-hydroxynaphthalen-2-yl)-1,1-dioxo-1,2,5-thiadiazolidin-3-one], the IC50 – broadly, the midpoint of a concentration-inhibition curve – against human PTP-1B worked out at 113 nM.

On to `COc1cc2cc(N3CC(=O)NS3(=O)=O)c(O)cc2oc1=O` [Example 70, 5-(7-Hydroxy-3-methoxy-2-oxo-2H-chromen-6-yl)-1,1-dioxo-1,2,5-thiadiazolidin-3-one], for which the melting point (usually the temperature of the solid-liquid transition) lay within 226 to 228 °C.

Take `O=C1CN(c2cc3cc(C4CCCC4)ccc3cc2O)S(=O)(=O)N1` [Example No. 22, 5-(7-Cyclopentyl-3-hydroxynaphthalen-2-yl)-1,1-dioxo-1,2,5-thiadiazolidin-3-one]: at human PTP-1B, the IC50 worked out at 85 nM.

These data come from patent publication US7700633B2, “Organic compounds” (Novartis AG, priority 2005, dated 2010).
